Laboratory results as given in patent publication EP1388013B1, “COMPOSITIONS AND METHODS FOR THE USE OF FIBRONECTIN FRAGMENTS IN THE DIAGNOSIS OF CANCER” (THE REGENTS OF THE UNIVERSITY OF MICHIGAN, priority 2001, dated 2002).
“Also recorded” adds a separate entry of the source. Non-standard residues stand in square brackets, D forms with d. Residues, ends and D or L forms follow the SMILES beside them. No end group written: not given here. hCys = N[C@@H](CCS)C(=O)O

How the values were obtained:
[1] = tested on: metastatic DU-145 prostate cancer cells; assay: SU-ECM invasion assay, DU-145 cells; assay type: cell-based, human; conditions: for IC100: Homo sapiens, DU-145, read-out: concentration that completely (fully) inhibits the invasion of metastatic DU145 cells; for concentration that completely inhibits the invasion of metastatic DU145 cells: Example 10; for concentration that completely (fully) inhibits the invasion of metastatic DU145 cells: Example 11, Figure 7, molar basis; for inhibition of serum-induced invasion of DU-145 cells: Figure 4A; for inhibition of PHSRN-induced invasion of DU-145 cells: serum-free medium, 100 ng per ml PHSRN, Figure 4B
Method: (§1) Adult Strongylocentrotus purpuratus sea urchins were obtained from Pacific BioMarine, and their embryos were cultured to the early pluteus stage in artificial sea water at 15°C. SU-ECM were prepared from them by treatment with nonionic detergent and sterilized by dilution in the appropriate media.
(§2) […] When appropriate, purified bovine plasma fibronectin (Sigma, St. Louis, Mo), purified 120 kDa chymotryptic fragment (Gibco BRL), PHSRN or PHSCN peptides (synthesized at the Biomedical Research Core Facilities of the University of Michigan), or GRGDSP or GRGESP peptides (Gibco BRL) were added to the resuspended cells prior to placement of the cells on SU-ECM. In each well of a plate used for an invasion assay, SU-ECM were placed in 0.5 ml of the appropriate medium, and 0.5ml of the resuspended cells dropped on their exterior surfaces. Invasion assays were incubated 1 to 16 hours prior to scoring. If some circumstances, invasion assays were fixed in phosphate-buffered saline (PBS) with 2% formaldehyde for 5 minutes at room temperature, then rinsed into PBS.
(§3) Invasion assays were coded and scored blindly by microscopic examination under phase contrast at 200- and 400-fold magnification. Each cell contacting an SU-ECM was scored for its position relative to the exterior or interior surfaces. A cell was judged to have invaded if it was located on an interior surface below the focal plane passing through the upper surface of the SU-ECM, but above the focal plane passing through its lower surface. The minimum viability of the cells in each assay was always ascertained at the time of assay by determining the fraction of spread, adherent cells on the bottom of each well scored.
(§4) An invasion frequency is defined as the fraction of cells in contact with basement membranes which were located in their interiors at the time of assay. Thus, an invasion frequency of 1 denotes invasion by 100% of the cells in contact with basement membranes. Invasion frequencies were determined multiple times for each cell type assayed. For each type of cell assayed the mean and standard deviation of the invasion frequencies were calculated.
(§5) The method of Example 4 is employed, with the addition of varying concentrations of the PHSCN peptide.
(§6) Thus, the procedure in Example 4 provides a method for determining the inhibitory potential of the PHSCN peptide by comparing the number of cell invasions in the presence of the PHSCN peptide, with the number of cell invasions in the absence of the PHSCN peptide.
In this example, in vitro invasion of cancer cells into substrates is inhibited with peptides that have been chemically modified with protecting groups and peptides having protecting groups as well as the modification wherein an L-amino acid has been replaced with the D-isomer. PHSCN peptide, blocked PHSCN peptide, and blocked PHSCN peptide with a D-cysteine instead of the L-isomer, were tested (Figure 4A, 4B).
In this example, in vitro invasion of cancer cells into substrates is inhibited with non-peptide mimetics in comparison with chemically modified peptides (on a molar basis). The peptides of Example 10 (i.e. peptides chemically modified with protecting groups and peptides having protecting groups as well as the modification wherein an L-amino acid has been replaced with the D-isomer) were compared with the non-peptide mimetics DL-N-Acetylhomocysteinethiolactone, Thiobutyrolactone, and Mercaptopropionic acid, in order to investigate the structure activity relationship for invasion inhibition by interaction with the PHSRN-binding pocket of the α5β1 fibronectin receptor (Figure 7)

[2] = tested on: neonatal fibroblasts; assay: SU-ECM invasion assay, neonatal fibroblasts; assay type: cell-based, human; conditions: in the presence (10% FCS) or absence of serum; molar concentration equivalent to plasma fibronectin in serum; Figure 9
Source text: In one example cells for the invasion assay are harvested by rinsing in Hanks' balanced salt solution, followed by brief treatment with 0.25% trypsin, 0.02% EDTA, and pelleting and resuspension in the appropriate medium with or without 5% FCS at a density of about 50,000 cells per ml. When appropriate, purified bovine plasma fibronectin (from Sigma, St. Louis, Mo), purified 120 kDa chymotryptic fragment (Gibco BRL) or PHSRN peptides (synthesized at the Biomedical Research Core Facilities of the University of Michigan) are added to the resuspended cells prior to placement of the cells on SU-ECM. In each well of a plate used for an invasion assay, SU-ECM were placed in 0.5 ml of the appropriate medium, and 0.5ml of the resuspended cells dropped on their exterior surfaces. Invasion assays were incubated 1 to 16 hours prior to assay. If some circumstances, invasion assays were fixed in phosphate-buffered saline (PBS) with 2% formaldehyde for 5 minutes at room temperature, then rinsed into PBS.
as §3, with “are” for “were”, “is” for “was”
as §4, with “membranes which are located in” for “membranes which were located in”, “Invasion frequencies are determined multiple” for “Invasion frequencies were determined multiple”
In this example, the invasiveness of neonatal fibroblasts into an SU-ECM invasion substrate is considered. Experiments were performed under serum-free conditions, or in medium with 10% fetal calf serum (FCS). Neither serum-free medium nor medium containing serum supported fibroblast invasion. However, consistent with the induction of metalloproteinase gene transcription by the 120 kDa fragment of plasma fibronectin (pFn) containing the cell-binding domain, the 120 kDa fragment induced fibroblast invasion in the presence or in the absence of serum. […]

[3] = tested on: rat metastatic prostate carcinoma MatLyLu (MLL) cells; assay: SU-ECM invasion assay, MatLyLu cells; assay type: cell-based; conditions: 10% FCS, Figure 5
Method: as §1
[…] When appropriate, purified bovine plasma fibronectin (Sigma, St. Louis, Mo), purified 120 kDa chymotryptic fragment (Gibco BRL), PHSRN or PHSCN peptides (synthesized at the Biomedical Research Core Facilities of the University of Michigan), or GRGDSP or GRGESP peptides (Gibco BRL) were added to the resuspended cells prior to placement of the cells on SU-ECM. […]
as §3, with “A cell was judged to have invaded if it was located on an interior surface below the focal plane passing through the upper surface of the SU-ECM, but above the focal plane passing through its lower surface.” left out
An invasion frequency is defined as the fraction of cells in contact with basement membranes which were located in their interiors at the time of assay. […] Invasion frequencies were determined multiple times for each cell type assayed. […]

[4] = tested on: metastatic SUM-52 PE breast cancer cells; assay: SU-ECM invasion assay, SUM-52 PE cells; assay type: cell-based, human; conditions: for inhibition of serum-induced invasion of SUM-52 PE cells: medium with 5% serum, Figure 3A; for inhibition of PHSRN-induced invasion of SUM-52 PE cells: serum free media, 100 ng per ml PHSRN, Figure 3B
Method: as §1
Cells were harvested by rinsing in Hanks balanced salt solution, followed by brief treatment with 0.25% trypsin, 0.02% EDTA, and pelleting and resuspension in the appropriate medium with or without 5% FCS at a density of about 50,000 cells per ml. When appropriate, purified bovine plasma fibronectin (Sigma, St. Louis, Mo), purified 120 kDa chymotryptic fragment (Gibco BRL), PHSRN or PHSCN peptides (synthesized at the Biomedical Research Core Facilities of the University of Michigan), or GRGDSP or GRGESP peptides (Gibco BRL) were added to the resuspended cells prior to placement of the cells on SU-ECM. In each well of a plate used for an invasion assay, SU-ECM were placed in 0.5 ml of the appropriate medium, and 0.5ml of the resuspended cells dropped on their exterior surfaces. Invasion assays were incubated 1 to 16 hours prior to scoring. If some circumstances, invasion assays were fixed in phosphate-buffered saline (PBS) with 2% formaldehyde for 5 minutes at room temperature, then rinsed into PBS.
as §3, §4, §5, §6

[5] = tested on: normal human mammary epithelial cells; assay: SU-ECM invasion assay, normal mammary epithelial cells; assay type: cell-based; conditions: 10% FCS, 100 ng per ml PHSRN, Figure 3B
Method: as §1, §2, §3
as §4, with “Thus, an invasion frequency of 1 denotes invasion by 100% of the cells in contact with basement membranes.” left out, “calculated. […]” for “calculated.”

[6] = tested on: normal human prostate epithelial cells; assay: SU-ECM invasion assay, normal prostate epithelial cells; assay type: cell-based; conditions: 10% FCS, 100 ng per ml PHSRN, Figure 4B
Method: as §1, §2, §3
as §4, with “Thus, an invasion frequency of 1 denotes invasion by 100% of the cells in contact with basement membranes.” left out, “calculated. […]” for “calculated.”

[7] = DU145 invasion inhibition, 10% serum

CC(=O)NC1CCSC1=O (racemic) [DL-N-Acetylhomocysteinethiolactone]
fold less active than blocked PHSCN [1, 7]: about 10 fold
fold more active than the unblocked PHSCN peptide [1, 7]: about 3 fold
IC100 [1]: 0.6 µM

CC(=O)N1CCC[C@H]1C(=O)N[C@@H](Cc1c[nH]cn1)C(=O)N[C@@H](CO)C(=O)N[C@H](CS)C(=O)N[C@@H](CC(N)=O)C(N)=O [Ac-PHS(dC)N-NH2] (Ac-PHS[dC]N-NH2)
invasion-inhibitory activity compared with Ac-PHSCN-NH2 ([1]; DU145 cells, medium with 10% serum, D-isomer of cysteine substituted): further increases the invasion-inhibitory activity; also recorded: further increases very substantially the invasion-inhibitory activity

N=C(N)NCCC[C@H](NC(=O)CN)C(=O)NCC(=O)N[C@@H](CC(=O)O)C(=O)N[C@@H](CO)C(=O)O [GRGDS, reference compound]
induction of fibroblast invasion of SU-ECM [2]: no detectable activity

O=C(O)CCS [Mercaptopropionic acid]
times less active in invasion inhibition than thiobutyrolactone [1, 7]: at least 100 times
times less active than the unblocked PHSCN peptide [1, 7]: ≥ 1500 times
reduction of DU145 invasion ([1]; at any of the concentrations tested, 10% serum): ≤ 20%

NC(=O)C[C@H](NC(=O)[C@H](CCS)NC(=O)[C@H](CO)NC(=O)[C@H](Cc1c[nH]cn1)NC(=O)[C@@H]1CCCN1)C(=O)O [PHS(hC)N] (H-PHS[hCys]N-OH)
inhibition of serum-induced invasion of MLL cells ([3]; higher concentrations): completely inhibits invasion
inhibition of serum-induced invasion of MLL cells ([3]; lower concentrations): substantially inhibits invasion

O=C1CCCS1 [Thiobutyrolactone]
fold less active than N-acetylhomocysteinethiolactone [1, 7]: 50 fold
fold less active than blocked PHSCN [1, 7]: about 500 fold
times less active than the unblocked PHSCN peptide [1, 7]: 15 times
IC100 [1]: 30 µM

Ac-PHSCN-NH2 [Ac-PHSCN-NH2]
concentration that completely inhibits the invasion of metastatic DU145 cells ([1]; medium with 10% serum): approximately 1.3 ng/ml
concentration that completely (fully) inhibits the invasion of metastatic DU145 cells ([1]; medium with 10% serum): approximately 0.06 µM

PHSCN [PHSCN]
inhibition of serum-induced invasion of SUM-52 PE cells ([4]; relatively high concentrations): complete inhibition
inhibition of serum-induced invasion of SUM-52 PE cells ([4]; relatively low concentrations): substantial inhibitory affect
inhibition of PHSRN-induced invasion of SUM-52 PE cells ([4]; higher concentrations): almost complete inhibition
inhibition of PHSRN-induced invasion of SUM-52 PE cells ([4]; low concentrations): substantial inhibitory affect
inhibition of PHSRN-induced invasion of normal human mammary epithelial cells ([5]; higher concentrations): almost complete inhibition
inhibition of PHSRN-induced invasion of normal human mammary epithelial cells ([5]; low concentrations): substantial inhibitory affect
inhibition of serum-induced invasion of DU-145 cells ([1]; 10% serum, relatively high concentrations): complete inhibition
inhibition of serum-induced invasion of DU-145 cells ([1]; 10% serum, relatively low concentrations): substantial inhibitory affect
concentration that completely inhibits the invasion of metastatic DU145 cells ([1]; medium with 10% serum): 3 ng/mL
concentration that completely (fully) inhibits the invasion of metastatic DU145 cells ([1]; medium with 10% serum): approximately 2 µM
inhibition of PHSRN-induced invasion of DU-145 cells ([1]; higher concentrations): almost complete inhibition
inhibition of PHSRN-induced invasion of DU-145 cells ([1]; low concentrations): substantial inhibitory affect
inhibition of PHSRN-induced invasion of normal human prostate epithelial cells ([6]; higher concentrations): almost complete inhibition
inhibition of PHSRN-induced invasion of normal human prostate epithelial cells ([6]; low concentrations): substantial inhibitory affect
